Measured values published in patent publication US8911805B2, “Calcium preparation and method of production thereof” (Toyo Suisan Kaisha, Ltd., priority 2010, dated 2014).

Test system: bone loss in low-Ca fed rats
Assay: Oral study of solid preparation of calcium in rats (dry weight of tibia)
Assay type: in vivo, Crl:CD (SD) rats
Conditions: compared to the low calcium fed group; feed Ca content 0.5%, three weeks
Method: A test for the improvement, effect of the solid preparation or calcium of the present invention on bone loss in low-Ca fed rats was performed using 5-week-old male Crl:CD (SD) rats. AIN-93M was administered to 4-week old rats. After habituation for one week, various kinds of feeds were administered to the rats for three weeks. As a basic feed, a feed obtained by modifying the content of calcium in AIN-93M to 0.2% (normal feed: 0.5%) was used.
The test groups included the following six groups (one group: eight rats): a low calcium fed group to which a basic feed was administered; a group to which a basic feed containing calcium carbonate at a Ca content of 0.5% was administered; a group to which a basic feed containing freeze-dried powder of a C100P100Ca200K225 solution after aging (at 37° C. for two days) at a Ca content of 0.5% was administered; a group to which a basic feed containing freeze-dried powder of a C200P100Ca200K550 solution after aging (at 37° C. for one day) a Ca content of 0.5% was administered; a group to which a basic feed containing freeze-dried powder of a C100P100Ca200K225 solution before aging at a Ca content of 0.5% was administered; and a group to which basic feed containing calcium lactate at a Ca content of 0.5% was administered.
After three weeks, the dry weight of the extracted tibia was measured. […]

Structure (SMILES)	bone weight (dry weight of the extracted tibia)
O=C([O-])[O-].[Ca+2] [calcium carbonate]	significantly increased
CC(O)C(=O)[O-].CC(O)C(=O)[O-].[Ca+2] (centres unmarked) [calcium lactate]	significantly increased
